This assay deals with Fatty acid synthase (Homo sapiens) (UniProt P49327). Kind of assay: FAS thioesterase domain inhibitors, SAR follow-up, biochemical, endpoint fluorescence intensity, analogs (AID 651670). As to conditions: recombinant FAS-TE, OMFH fluorogenic substrate.

The source made the active and inactive calls.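 How the source made its calls: active means IC50 at or below 20 µM; inactive means the rest.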

Sequence of Fatty acid synthase (Homo sapiens) (P49327 whole entry, looked up, the tested form may be a part): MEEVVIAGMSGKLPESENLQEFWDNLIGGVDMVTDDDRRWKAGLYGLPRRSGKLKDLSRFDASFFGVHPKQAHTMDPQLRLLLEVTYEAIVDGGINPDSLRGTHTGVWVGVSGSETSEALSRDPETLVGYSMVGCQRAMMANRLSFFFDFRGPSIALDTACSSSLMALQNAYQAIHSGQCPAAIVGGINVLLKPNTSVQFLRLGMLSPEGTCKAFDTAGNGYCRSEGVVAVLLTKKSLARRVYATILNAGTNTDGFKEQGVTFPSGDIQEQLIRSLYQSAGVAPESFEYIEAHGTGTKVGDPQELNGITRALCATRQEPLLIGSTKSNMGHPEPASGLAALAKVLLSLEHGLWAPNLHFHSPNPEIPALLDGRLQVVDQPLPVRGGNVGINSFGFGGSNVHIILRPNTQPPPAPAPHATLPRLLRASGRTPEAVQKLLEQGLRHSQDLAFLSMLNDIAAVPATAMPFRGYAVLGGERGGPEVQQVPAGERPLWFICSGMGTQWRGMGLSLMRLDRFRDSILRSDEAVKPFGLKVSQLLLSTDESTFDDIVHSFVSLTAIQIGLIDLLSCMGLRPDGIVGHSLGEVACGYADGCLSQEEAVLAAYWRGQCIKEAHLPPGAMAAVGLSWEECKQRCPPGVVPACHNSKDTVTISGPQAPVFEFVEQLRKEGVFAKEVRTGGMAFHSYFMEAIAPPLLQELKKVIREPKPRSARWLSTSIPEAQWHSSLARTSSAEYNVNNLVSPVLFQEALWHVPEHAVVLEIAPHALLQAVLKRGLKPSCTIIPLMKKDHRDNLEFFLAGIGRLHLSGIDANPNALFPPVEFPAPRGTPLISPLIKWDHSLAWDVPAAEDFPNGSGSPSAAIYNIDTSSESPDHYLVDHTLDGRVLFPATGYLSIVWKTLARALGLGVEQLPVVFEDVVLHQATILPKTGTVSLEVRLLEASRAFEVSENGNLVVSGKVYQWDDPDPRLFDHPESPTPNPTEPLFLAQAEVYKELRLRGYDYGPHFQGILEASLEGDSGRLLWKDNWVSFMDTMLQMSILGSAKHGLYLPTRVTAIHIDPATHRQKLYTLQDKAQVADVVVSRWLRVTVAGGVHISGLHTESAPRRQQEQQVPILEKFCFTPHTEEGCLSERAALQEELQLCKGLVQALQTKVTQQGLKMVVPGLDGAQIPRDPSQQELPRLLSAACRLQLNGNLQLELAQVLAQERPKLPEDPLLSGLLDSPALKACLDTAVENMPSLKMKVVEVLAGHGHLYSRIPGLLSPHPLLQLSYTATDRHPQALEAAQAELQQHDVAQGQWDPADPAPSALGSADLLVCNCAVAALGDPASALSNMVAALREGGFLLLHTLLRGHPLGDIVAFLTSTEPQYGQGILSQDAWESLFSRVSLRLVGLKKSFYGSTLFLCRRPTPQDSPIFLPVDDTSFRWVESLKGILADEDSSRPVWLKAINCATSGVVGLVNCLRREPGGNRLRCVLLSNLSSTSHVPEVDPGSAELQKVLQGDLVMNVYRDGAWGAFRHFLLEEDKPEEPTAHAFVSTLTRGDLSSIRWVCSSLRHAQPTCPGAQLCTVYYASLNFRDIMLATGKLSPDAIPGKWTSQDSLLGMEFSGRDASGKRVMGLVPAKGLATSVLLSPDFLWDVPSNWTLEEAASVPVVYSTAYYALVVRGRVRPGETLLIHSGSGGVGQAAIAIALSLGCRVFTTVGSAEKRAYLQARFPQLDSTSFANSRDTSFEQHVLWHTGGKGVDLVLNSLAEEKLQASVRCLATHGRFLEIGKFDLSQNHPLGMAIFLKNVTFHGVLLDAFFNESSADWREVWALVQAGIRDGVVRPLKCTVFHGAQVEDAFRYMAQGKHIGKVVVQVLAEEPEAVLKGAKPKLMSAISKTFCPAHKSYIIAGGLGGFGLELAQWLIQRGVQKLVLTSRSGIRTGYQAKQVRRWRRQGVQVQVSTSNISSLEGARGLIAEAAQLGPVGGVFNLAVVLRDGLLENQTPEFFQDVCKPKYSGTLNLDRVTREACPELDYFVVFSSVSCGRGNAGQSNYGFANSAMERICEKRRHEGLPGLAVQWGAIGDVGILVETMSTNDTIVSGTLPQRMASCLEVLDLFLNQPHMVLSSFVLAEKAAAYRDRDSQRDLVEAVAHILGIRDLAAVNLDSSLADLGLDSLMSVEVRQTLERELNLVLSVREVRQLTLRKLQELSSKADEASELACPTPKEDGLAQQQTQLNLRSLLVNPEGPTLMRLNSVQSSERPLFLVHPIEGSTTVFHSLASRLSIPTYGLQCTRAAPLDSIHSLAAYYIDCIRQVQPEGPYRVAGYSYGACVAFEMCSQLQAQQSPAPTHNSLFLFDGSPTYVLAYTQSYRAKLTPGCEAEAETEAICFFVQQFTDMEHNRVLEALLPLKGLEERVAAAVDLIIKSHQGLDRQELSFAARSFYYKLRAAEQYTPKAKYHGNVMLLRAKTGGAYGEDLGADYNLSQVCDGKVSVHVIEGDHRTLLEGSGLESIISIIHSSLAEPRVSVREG

Regarding `CCc1ccc(CN(C)C(=O)Cc2ccc(S(=O)(=O)N3CCCC3)s2)cc1`, the IC50 was 12.9 µM.
For the compound `Cn1c(SCC(=O)Nc2cccc(Cl)c2)nnc1-c1ccc(Cl)cc1`, the IC50 is > 80 µM (inactive).
For the compound `Cc1nnc(SCC(=O)Nc2ncc(C(F)(F)F)cc2Cl)n1-c1ccccc1`, the IC50 is > 80 µM (inactive).
The same measure for `CCn1c(SCC(=O)Nc2ncc(C(F)(F)F)cc2Cl)nnc1-c1ccncc1`: “inactive”; for `O=S(=O)(c1ccc(-c2csc(N3CCCC3)n2)cc1)N1CCOCC1`: 0.948 µM; for `Cc1ccccc1NC(=O)CSc1nnc(-c2ccc(Cl)cc2)n1C`: > 80 µM (inactive).
For the compound `COc1ccc(-c2nnc(SCC(=O)Nc3ncc(C(F)(F)F)cc3Cl)n2C)cc1`, the IC50 was 1.96 µM.
Take `O=S(=O)(c1ccc(-c2csc(Cc3ccccc3)n2)cc1)N1CCOCC1`: the IC50 is 0.664 µM.
Then `Cn1c(Cc2ccccc2)nnc1SCC(=O)Nc1ncc(C(F)(F)F)cc1Cl`, with “inactive”.
`O=C(Nc1nc(-c2ccc(S(=O)(=O)N3CCOCC3)cc2)cs1)c1cccs1`: the IC50 entry is “inactive”.
Regarding `O=C(Nc1nc(-c2ccc(S(=O)(=O)N3CCOCC3)cc2)cs1)c1ccco1`, the IC50 result was “inactive”.
The same measure for `Cc1ccc(NC(=O)Cc2nc(-c3ccc(S(=O)(=O)N4CCOCC4)cc3)cs2)cc1`: > 80 µM (inactive).
For `Cn1c(SCC(=O)Nc2ncc(C(F)(F)F)cc2Cl)nnc1-c1ccc(F)cc1`, the IC50 was 8.27 µM.
The same measure for `COc1ccc(CN(C)C(=O)Cc2ccc(S(=O)(=O)N3CCOCC3)s2)cc1OC`: > 80 µM (inactive).
As for `Cn1c(SCC(=O)Nc2ccccc2)nnc1-c1ccc(Cl)cc1`, the IC50 is > 80 µM (inactive).
The same measure for `CCCCn1c(SCC(=O)Nc2ncc(C(F)(F)F)cc2Cl)nnc1-c1ccc(OC)cc1`: 0.67 µM; for `CCCn1c(SCC(=O)Nc2ncc(C(F)(F)F)cc2Cl)nnc1-c1ccncc1`: “inactive”.
For the compound `CC(=O)Nc1nc(-c2ccc(S(=O)(=O)N3CCOCC3)cc2)cs1`, the IC50 is 15.3 µM.
With `CN(Cc1cccc(F)c1)C(=O)Cc1ccc(S(=O)(=O)N2CCOCC2)s1`, the IC50 was > 80 µM (inactive).
